# Experimental data published in US10442803B2, “Tricyclic heterocycles as bet protein inhibitors” (Incyte Corporation, priority 2013, dated 2019).
# Where a name gives a salt, the structure may show the parent alone.
# System: KMS.12.BM cells
# Experiment: KMS.12.BM cell viability assay
# Format: cell-based
# Settings: 72 h; KMS.12.BM human myeloma cells, 3 days, Cell Titer-GLO ATP quantitation; read-out: KMS cellular IC50
# Procedure, shortened: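 Human myeloma KMS.12.BM cells, 5000 per well in RPMI/10% FBS, exposed 3 days to compound concentration range. Viability from ATP-based Cell Titer-GLO luminescence; IC50 derived.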
row,SMILES,IC50 [nM]
1,"Cc1nnc2ccc3c(cc(C(=O)NCCCO)n3Cc3cccc(Cl)c3)n12 [Example 127, 6-(3-Chlorobenzyl)-N-(3-hydroxypropyl)-1-methyl-6H-pyrrolo[2,3-e][1,2,4]triazolo[4,3-a]pyridine-7-carboxamide trifluoroacetate salt]",≤ 1000
2,"Cc1nnc2ccc3c(ccn3S(=O)(=O)c3ccccc3)n12 [Example 3, 1-methyl-6-(phenylsulfonyl)-6H-pyrrolo[2,3-e][1,2,4]triazolo[4,3-a]pyridine]",1000 to 10000
3,"CCNCc1cccc(Cn2c(C)cc3c2ccc2nnc(C)n23)c1 [Example 42, N-{3-[(1,7-dimethyl-6H-pyrrolo[2,3-e][1,2,4]triazolo[4,3-a]pyridin-6-yl)methyl]benzyl}ethanamine]",≤ 1000
4,"Cc1nnc2ccc3c(cc(-c4ccn(C)n4)n3Cc3ccccc3)n12 [Example 76, 6-benzyl-1-methyl-7-(1-methyl-1H-pyrazol-3-yl)-6H-pyrrolo[2,3-e][1,2,4]triazolo[4,3-a]pyridine]",≤ 1000
5,"Cc1cc2c(cc(NC(N)=O)c3nnc(C)n32)n1Cc1cccc(Cl)c1 [Example 231, 1-(6-(3-Chlorobenzyl)-1,7-dimethyl-6H-pyrrolo[2,3-e][1,2,4]triazolo[4,3-a]pyridin-4-yl)urea]",≤ 1000
6,"Cc1nnc2ccc3c(cc(-c4ccn(CCC(=O)N5CCOCC5)n4)n3Cc3cccc(Cl)c3)n12 [Example 169, 6-(3-Chlorobenzyl)-1-methyl-7-[1-(3-morpholin-4-yl-3-oxopropyl)-1H-pyrazol-3-yl]-6H-pyrrolo[2,3-e][1,2,4]triazolo[4,3-a]pyridine trifluoroacetate salt]",≤ 1000
7,"Cc1nnc2ccc3c(cc(-c4ccn(C5COC5)n4)n3Cc3cccc(Cl)c3)n12 [Example 177, 6-(3-Chlorobenzyl)-1-methyl-7-(1-oxetan-3-yl-1H-pyrazol-3-yl)-6H-pyrrolo[2,3-e][1,2,4]triazolo[4,3-a]pyridine trifluoroacetate salt]",≤ 1000
8,"CNC(=O)CCn1ccc(-c2cc3c(ccc4nnc(C)n43)n2Cc2ccccc2)n1 [Example 97, 3-[3-(6-benzyl-1-methyl-6H-pyrrolo[2,3-e][1,2,4]triazolo[4,3-a]pyridin-7-yl)-1H-pyrazol-1-yl]-N-methylpropanamide]",≤ 1000
9,"Cc1nnc2ccc3c(cc(-c4ccn(C5CN(CCC#N)C5)n4)n3Cc3cccc(Cl)c3)n12 [Example 181, 3-(3-{3-[6-(3-Chlorobenzyl)-1-methyl-6H-pyrrolo[2,3-e][1,2,4]triazolo[4,3-a]pyridin-7-yl]-1H-pyrazol-1-yl}azetidin-1-yl)propanenitrile bis(trifluoroacetate) salt]",≤ 1000
10,"Cc1cc2c(ccc3nnc(C)n32)n1Cc1cccc(CN2CCCC2)c1 [Example 45, 1,7-dimethyl-6-[3-(pyrrolidin-1-ylmethyl)benzyl]-6H-pyrrolo[2,3-e][1,2,4]triazolo[4,3-a]pyridine]",≤ 1000
11,"CNc1cc2c(cc(C)n2Cc2ccccc2)n2c(C)nnc12 [Example 261, 6-Benzyl-N,1,7-trimethyl-6H-pyrrolo[2,3-e][1,2,4]triazolo[4,3-a]pyridin-4-amine]",≤ 1000
12,"Cc1nnc2ccc3c(cc(CO)n3Cc3ccccc3)n12 [Example 56, (6-benzyl-1-methyl-6H-pyrrolo[2,3-e][1,2,4]triazolo[4,3-a]pyridin-7-yl)methanol]",1000 to 10000
13,"CNC(=O)c1cc2c(ccc3nnc(C)n32)n1Cc1cccc(CN2CCC2)c1 [Example 122, 6-[3-(Azetidin-1-ylmethyl)benzyl]-N,1-dimethyl-6H-pyrrolo[2,3-e][1,2,4]triazolo[4,3-a]pyridine-7-carboxamide bis(trifluoroacetate) salt]",1000 to 10000
14,"Cc1nnc2ccc3c(cc(Cn4ccnc4)n3Cc3ccccc3)n12 [Example 57, 6-benzyl-7-(1H-imidazol-1-ylmethyl)-1-methyl-6H-pyrrolo[2,3-e][1,2,4]triazolo[4,3-a]pyridine]",1000 to 10000
15,"CCNc1cc2c(cc(C)n2Cc2ccccc2)n2c(C)nnc12 [Example 259, 6-Benzyl-N-ethyl-1,7-dimethyl-6H-pyrrolo[2,3-e][1,2,4]triazolo[4,3-a]pyridin-4-amine]",≤ 1000
16,"Cc1cc2c(cc(Nc3ccn(C)n3)c3nnc(C)n32)n1Cc1ccccc1 [Example 202, 6-Benzyl-1,7-dimethyl-N-(1-methyl-1H-pyrazol-3-yl)-6H-pyrrolo[2,3-e][1,2,4]triazolo[4,3-a]pyridin-4-amine tris(trifluoroacetate) salt]",≤ 1000
17,"Cc1cc2c(ccc3nnc(C)n32)n1Cc1cccc(C#N)c1 [Example 20, 3-[(1,7-dimethyl-6H-pyrrolo[2,3-e][1,2,4]triazolo[4,3-a]pyridine-6-yl)methyl]benzonitrile]",≤ 1000
18,"Cc1cc2c(cc(NCCCN)c3nnc(C)n32)n1Cc1ccccc1 [Example 257, N1-(6-Benzyl-1,7-dimethyl-6H-pyrrolo[2,3-e][1,2,4]triazolo[4,3-a]pyridin-4-yl)propane-1,3-diamine]",≤ 1000

row,SMILES,IC50 [nM]
1,"Cc1nnc2ccc3c(ccn3C(C)c3ccccc3)n12 (racemic) [Example 4, 1-methyl-6-(1-phenylethyl)-6H-pyrrolo[2,3-e][1,2,4]triazolo[4,3-a]pyridine]",1000 to 10000
2,"Cc1nnc2ccc3c(cc(-c4ccn[nH]4)n3Cc3cccc(Cl)c3)n12 [Example 155, 6-(3-chlorobenzyl)-1-methyl-7-(1H-pyrazol-5-yl)-6H-pyrrolo[2,3-e][1,2,4]triazolo[4,3-a]pyridine bis(trifluoroacetate) salt]",≤ 1000
3,"Cc1cc2c(ccc3nnc(C)n32)n1Cc1cccc(CN2CCC2)c1 [Example 28, 6-[3-(azetidin-1-ylmethyl)benzyl]-1,7-dimethyl-6H-pyrrolo[2,3-e][1,2,4]triazolo[4,3-a]pyridine]",≤ 1000
4,"Cc1nnc2ccc3c(cc(C(=O)NC4CCC4)n3Cc3ccccc3)n12 [Example 85, 6-benzyl-N-cyclobutyl-1-methyl-6H-pyrrolo[2,3-e][1,2,4]triazolo[4,3-a]pyridine-7-carboxamide]",≤ 1000
5,"COC(=O)Nc1cc2c(cc(C)n2Cc2ccccc2)n2c(C)nnc12 [Example 272, Methyl 6-benzyl-1,7-dimethyl-6H-pyrrolo[2,3-e][1,2,4]triazolo[4,3-a]pyridin-4-ylcarbamate]",≤ 1000
6,"Cc1cc2c(ccc3nnc(C)n32)n1Cc1cccc(CN[C@H]2C[C@H](O)C2)c1 [Example 39, (1r,3r)-3-((3-((1,7-dimethyl-6H-pyrrolo[2,3-e][1,2,4]triazolo[4,3-a]pyridin-6-yl)methyl)benzyl)amino)cyclobutanol]",≤ 1000
7,"CCn1ccc(-c2cc3c(ccc4nnc(C)n43)n2Cc2cc(Cl)cc(CN3CCCC3)c2)n1 [Example 189, 6-(3-Chloro-5-(pyrrolidin-1-ylmethyl)benzyl)-7-(1-ethyl-1H-pyrazol-3-yl)-1-methyl-6H-pyrrolo[2,3-e][1,2,4]triazolo[4,3-a]pyridine tris(trifluoroacetate) salt]",≤ 1000
8,"Cc1nnc2ccc3c(cc(-c4cnn(CC#N)c4)n3Cc3ccccc3)n12 [Example 64, [4-(6-benzyl-1-methyl-6H-pyrrolo[2,3-e][1,2,4]triazolo[4,3-a]pyridin-7-yl)-1H-pyrazol-1-yl]acetonitrile]",≤ 1000
9,"Cc1cc2c(cc(N[C@H]3CC[C@@H](C#N)CC3)c3nnc(C)n32)n1Cc1ccccc1 (single isomer, unassigned) [Example 215 b, 4-[(6-benzyl-1,7-dimethyl-6H-pyrrolo[2,3-e][1,2,4]triazolo[4,3-a]pyridin-4-yl)amino]cyclohexanecarbonitrile trifluoroacetate salt]",1000 to 10000
10,"CCNC(=O)c1cc2c(ccc3nnc(C)n32)n1Cc1cc(Cl)cc(CN2CCCC2)c1 [Example 133, 6-[3-Chloro-5-(pyrrolidin-1-ylmethyl)benzyl]-N-ethyl-1-methyl-6H-pyrrolo[2,3-e][1,2,4]triazolo[4,3-a]pyridine-7-carboxamide bis(trifluoroacetate) salt]",≤ 1000
11,"Cc1nnc2ccc3c(cc(-c4ncco4)n3Cc3cc(Cl)cc(CN4CCCC4)c3)n12 [Example 197, 6-[3-Chloro-5-(pyrrolidin-1-ylmethyl)benzyl]-1-methyl-7-(1,3-oxazol-2-yl)-6H-pyrrolo[2,3-e][1,2,4]triazolo[4,3-a]pyridine bis(trifluoroacetate) salt]",≤ 1000
12,"Cc1nnc2ccc3c(cc(-c4ccn(CCC#N)n4)n3Cc3ccccc3)n12 [Example 78, 3-[3-(6-benzyl-1-methyl-6H-pyrrolo[2,3-e][1,2,4]triazolo[4,3-a]pyridin-7-yl)-1H-pyrazol-1-yl]propanenitrile]",≤ 1000
13,"Cc1cc2c(cc(Nc3ncc[nH]3)c3nnc(C)n32)n1Cc1ccccc1 [Example 253, 6-Benzyl-N-(1H-imidazol-2-yl)-1,7-dimethyl-6H-pyrrolo[2,3-e][1,2,4]triazolo[4,3-a]pyridin-4-amine]",≤ 1000
14,"Cc1nnc2ccc3c(cc(C(=O)NCCCO)n3Cc3ccccc3)n12 [Example 123, 6-Benzyl-N-(3-hydroxypropyl)-1-methyl-6H-pyrrolo[2,3-e][1,2,4]triazolo[4,3-a]pyridine-7-carboxamide trifluoroacetate salt]",≤ 1000
15,"CC(=O)N1CC(n2ccc(-c3cc4c(ccc5nnc(C)n54)n3Cc3cccc(Cl)c3)n2)C1 [Example 108, 7-[1-(1-acetylazetidin-3-yl)-1H-pyrazol-3-yl]-6-(3-chlorobenzyl)-1-methyl-6H-pyrrolo[2,3-e][1,2,4]triazolo[4,3-a]pyridine]",≤ 1000
16,"CC(=O)N1CC(CC#N)(n2ccc(-c3cc4c(ccc5nnc(C)n54)n3Cc3ccccc3)n2)C1 [Example 91, {1-acetyl-3-[3-(6-benzyl-1-methyl-66H-pyrrolo[2,3-e][1,2,4]triazolo[4,3-a]pyridin-7-yl)-1H-pyrazol-1-yl]azetidin-3-yl}acetonitrile]",≤ 1000
17,"CCNC(=O)c1cc2c(ccc3nnc(C)n32)n1Cc1ccccc1 [Example 59, 6-benzyl-N-ethyl-1-methyl-6H-pyrrolo[2,3-e][1,2,4]triazolo[4,3-a]pyridine-7-carboxamide]",≤ 1000
